Entries after “also recorded” stand apart in the source; their conditions may differ.
What was measured:
Format in all cases: cell-based, human
AURKB = AURKB knock-down by siRNA against AURKB, western blot; details: LC319 cells
Method: (§1) Cells were lysed in lysis buffer; 50 mM Tris-HCl (pH 8.0), 150 mM NaCl, 0.5% NP-40, 0.5% deoxycholate-Na, 0.1% SDS, plus protease inhibitor (Protease Inhibitor Cocktail Set III; Calbiochem Darmstadt, Germany). An ECL western-blot analysis system was used (GE Healthcare Bio-sciences, Piscataway, N.J.), as previously described (Kato T, et al., Cancer Res. 2005 Jul. 1; 65(13):5638-46; Furukawa C, et al., Cancer Res. 2005 Aug. 15; 65(16):7102-10).
(§2) A vector-based RNA interference (RNAi) system, psiH1BX3.0, which was designed to synthesize siRNAs in mammalian cells was previously established (Suzuki C, et al., Cancer Res. 2003 Nov. 1; 63(21):7038-41; Kato T, et al., Cancer Res. 2005 Jul. 1; 65(13):5638-46; Furukawa C, et al., Cancer Res. 2005 Aug. 15; 65(16):7102-10; Suzuki C, et al., Cancer Res. 2005 Dec. 15; 65(24):11314-25. Ishikawa N, et al., Cancer Sci. 2006 August; 97(8):737-45; Takahashi K, et al., Cancer Res. 2006 Oct. 1; 66(19):9408-19; Hayama S, et al., Cancer Res. 2006 Nov. 1; 66(21):10339-48). 10 micrograms of siRNA-expression vector was transfected using 30 microliters of Lipofectamine 2000 (Invitrogen) into lung-cancer cell lines, LC319 and SBC-5. The transfected cells were cultured for seven days in the presence of appropriate concentrations of geneticin (G418), and the number of colonies was counted by Giemsa staining, and viability of cells was evaluated by MTT assay (cell-counting kit-8 solution; DOJINDO, Kumamoto, Japan), at 7 days after the G418 treatment. To confirm suppression of CDCA8 protein expression, western blotting was carried out with affinity-purified polyclonal antibody to CDCA8 according to the standard protocol. The target sequences of the synthetic oligonucleotides for RNAi were as follows:
Furthermore, to inhibit the AURKB activity in mammalian cells, siRNA oligos were constructed against AURKB (si-AURKB-#1 and -#2), as well as control siRNA oligos for EGFP. […]
#2: 5′-ACGCGGCACUUCACAAUUG-3′ (SEQ ID NO: 63)) in a final concentration of 100 nM. […] The cells were collected and analyzed after additional 72-hour culture.

CDCA8 [1] = experiment: Western blot of endogenous CDCA8 protein after AURKB knock-down; details: LC319 cells
Method: as §1, §2
Furthermore, to inhibit the AURKB activity in mammalian cells, siRNA oligos were constructed against AURKB (si-AURKB-#1 and -#2), as well as control siRNA oligos for EGFP. The target sequences of the synthetic oligonucleotides for RNAi were as follows:
(§3) Cells seeded onto 10 cm-dishes were incubated in mixtures of both Lipofectamine (Invitrogen) and control 3 (5′-GAAGCAGCACGACUUCUUC-3′ (SEQ ID NO: 61)) or si-AURKBs (#1: 5′-CCAAACUGCUCAGGCAUAA-3′ (SEQ ID NO: 62);
(§4) #2: 5′-ACGCGGCACUUCACAAUUG-3′ (SEQ ID NO: 63)) in a final concentration of 100 nM. At 4 hours after transfection, the siRNA-lipofectamine mixtures were replaced with fresh media. The cells were collected and analyzed after additional 72-hour culture.

CDCA8 transcripts = experiment: Semi-quantitative RT-PCR of CDCA8 transcript after AURKB knock-down; details: LC319 cells
Method: Total RNA was extracted from cultured cells and clinical tissues using Trizol reagent (Life Technologies, Inc., Gaithersburg, Md.) according to the manufacturer's protocol. Extracted RNAs and normal human tissue poly(A) RNAs were treated with DNase I (Nippon Gene, Tokyo, Japan) and reversely-transcribed using oligo (dT) primer and SuperScript II reverse transcriptase (Invitrogen, Carlsbad, Calif.). Semi-quantitative RT-PCR experiments were carried out with the following synthesized CDCA8-specific primers, AURKB-specific primers, E2F-1-specific primers, or with beta-actin (ACTB)-specific primers as an internal control:
as §3, §4

CDCA8 [2] = experiment: RNA interference with si-CDCA8 vectors, western blot of CDCA8 protein; details: in comparison with two control siRNAs (EGFP, Luciferase)
Method: as §1
as §2, with “follows: […]” for “follows:”

LC319 cells [3] = experiment: MTT assay after siRNA-expression vector transfection; details: 7 days after G418 treatment, vs control siRNAs
Text: as §2, with “follows: […]” for “follows:”

SBC-5 cells [4] = experiment: as above; details: 7 days after G418 treatment, vs control siRNAs
Text: as §2, with “follows: […]” for “follows:”

LC319 cells [5] = experiment: Colony formation assay after siRNA-expression vector transfection; details: Giemsa staining, vs control siRNAs
Text: as §2, with “follows: […]” for “follows:”

SBC-5 cells [6] = experiment: as above; details: Giemsa staining, vs control siRNAs
Text: as §2, with “follows: […]” for “follows:”

| Substance | AURKB expression / AURKB protein (AURKB) | amount of CDCA8 protein (CDCA8 [1]) | level of CDCA8 transcripts (CDCA8 transcripts) | expression of endogenous CDCA8 proteins (CDCA8 [2]; LC319 cells) | expression of endogenous CDCA8 proteins (CDCA8 [2]; SBC-5 cells) | cell viability (MTT assay) (LC319 cells [3]) | cell viability (MTT assay) (SBC-5 cells [4]) | colony numbers (colony-formation assay) (LC319 cells [5]) | colony numbers (colony-formation assay) (SBC-5 cells [6]) | phosphorylation levels of CDCA8 (CDCA8 [1]) |
| --- | --- | --- | --- | --- | --- | --- | --- | --- | --- | --- |
| 5′-ACGCGGCACUUCACAAUUG-3′ (listed as RNA, chemistry not given here) [si-AURKB-#2] | Reduction | dramatically decreased | not influenced |  |  |  |  |  |  |  |
| 5′-CAGCAGAAGCTATTCAGAC-3′ (CAGCAGAAGCTATTCAGACTTCAAGAGAGTCTGAATAGCTTCTGCTG; expressed or natural sequence) [si-CDCA8-#1] |  |  |  | significantly suppressed | significantly suppressed | significant decreases | significant decreases | significant decreases | significant decreases |  |
| 5′-CCAAACUGCUCAGGCAUAA-3′ (listed as RNA, chemistry not given here) [si-AURKB-#1] | Reduction | dramatically decreased | not influenced |  |  |  |  |  |  |  |
| 5′-GCCGTGCTAACACTGTTAC-3′ (GCCGTGCTAACACTGTTACTTCAAGAGAGTAACAGTGTTAGCACGGC; expressed or natural sequence) [si-CDCA8-#2] |  |  |  | significantly suppressed | significantly suppressed | significant decreases | significant decreases | significant decreases | significant decreases |  |
| 5′-GGTGATTCACAGAGACATA-3′ (GGTGATTCACAGAGACATATTCAAGAGATATGTCTCTGTGAATCACC; expressed or natural sequence) [si-AURKB] | selectively knocked down; also recorded: Reduction | decreased | not influenced |  |  |  |  |  |  | decreased |

Reference: US20100184047A1, “SCREENING AND THERAPEUTIC METHOD FOR NSCLC TARGETING THE CDCA8-AURKB COMPLEX” (ONCOTHERAPY SCIENCE, INC., priority 2007, published 2010)
